One experiment deals with T1, gastrin receptor (Rattus norvegicus, UniProt P30553).
T1 construct: The stomach was excised and flushed with ca. 1 ml of unbuffered physiological saline solution; from tissue; host or cells: isolated whole stomach of immature rats (ca. 21 days old)
T1 sequence (P30553 1-452): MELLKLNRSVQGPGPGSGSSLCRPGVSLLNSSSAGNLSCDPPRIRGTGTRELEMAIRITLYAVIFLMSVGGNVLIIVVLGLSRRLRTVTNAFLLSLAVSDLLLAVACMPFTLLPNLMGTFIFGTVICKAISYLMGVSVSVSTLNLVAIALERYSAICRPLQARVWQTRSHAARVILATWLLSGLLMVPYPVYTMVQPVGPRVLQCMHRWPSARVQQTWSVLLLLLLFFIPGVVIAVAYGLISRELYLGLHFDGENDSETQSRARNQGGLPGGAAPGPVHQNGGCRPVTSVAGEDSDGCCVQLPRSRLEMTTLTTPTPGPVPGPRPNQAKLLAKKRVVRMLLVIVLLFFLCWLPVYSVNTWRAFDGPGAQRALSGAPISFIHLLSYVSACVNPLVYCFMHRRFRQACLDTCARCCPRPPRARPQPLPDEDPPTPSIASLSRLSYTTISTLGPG
Nature of the experiment: gastrin antagonist activity in immature rat stomach assay (pentagastrin dose-response, acid secretion). To be noted: isolated immature rat stomach, cumulative pentagastrin dose-response curves, read-out: Gastrin pKb (converted). The procedure, abridged: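 Gastrin antagonism was measured as the effect on cumulative pentagastrin dose-response curves of acid output, recorded by pH electrode in the perfusate of an excised immature rat stomach (ca. 21 days old). Test compound was placed in the serosal bath (37°, 3×10^−8 M 5-methylfurmethide) 60 min before pentagastrin.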

A further experiment concerns the target T2, CCKB receptor (Mus musculus, UniProt P56481).
T2 construct: The whole brains from male mice (CD1 22-25 g; Charles River) were removed; from tissue; host or cells: cerebral cortex membranes of male CD1 mice
T2 sequence (P56481 1-453): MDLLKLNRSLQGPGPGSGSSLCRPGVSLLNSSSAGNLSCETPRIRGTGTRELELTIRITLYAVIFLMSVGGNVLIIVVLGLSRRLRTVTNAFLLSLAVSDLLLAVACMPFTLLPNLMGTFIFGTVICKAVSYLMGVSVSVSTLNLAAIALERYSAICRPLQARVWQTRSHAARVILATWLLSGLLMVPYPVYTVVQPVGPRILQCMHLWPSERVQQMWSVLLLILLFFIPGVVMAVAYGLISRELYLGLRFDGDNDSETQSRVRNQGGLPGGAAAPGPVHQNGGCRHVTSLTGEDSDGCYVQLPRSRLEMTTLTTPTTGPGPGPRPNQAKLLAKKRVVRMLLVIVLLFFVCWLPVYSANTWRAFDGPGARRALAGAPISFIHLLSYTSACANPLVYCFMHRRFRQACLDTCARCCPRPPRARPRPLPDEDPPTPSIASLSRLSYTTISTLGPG
Nature of the experiment: CCKB receptor radioligand binding assay in mouse cortical membranes. Conditions: [125I]-CCK8(S) 200 pM, 150 min at 21±3°, read-out: CCKB pKi (converted). In short, it runs like this: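 Bound radioactivity was gamma-counted after rapid GF/B filtration and cold 50 mM Tris-HCl (pH 7.4) washes. The tissue was cerebral cortex from male CD1 mice, prepared as twice-centrifuged membranes in pH 7.2 HEPES/NaCl/KCl/MgCl2/EDTA buffer with bacitracin at 20 mg/ml original wet weight.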

Data on 23 compounds can be found in patent publication US6479531B1, “Gastrin and cholecystokinin receptor ligands” (James Black Foundation Limited, priority 1998, dated 2002).

In the case of `O=C(O)c1cc(NC(=O)c2[nH]c(-c3ccccc3)nc2CC23CC4CC(CC(C4)C2)C3)cc(C(=O)O)c1` [Example 37, 5-[(5-Adamantan-1-ylmethyl-2-phenyl-1H-imidazole-4-carbonyl)-amino]-isophthalic Acid], the Kb on gastrin receptor is 1260 nM. In addition, the Ki on CCKB receptor was 209 nM.

As to `O=C(O)c1cccc(NC(=O)c2nc(-c3ccccc3C(F)(F)F)[nH]c2CCC2CCCCCC2)c1` [Example 40, 3-{[5-(2-Cycloheptyl-ethyl)-2-(2-trifluoromethyl-phenyl)-1H-imidazole-4-carbonyl]-amino}-benzoic Acid], the Kb at gastrin receptor was 204 nM. Also, on CCKB receptor, the Ki was 933 nM.

With `COc1cccc(-c2nc(C(=O)Nc3cccc(C(=O)O)c3)c(CCC3CCCCCC3)[nH]2)c1` [Example 42, 3-{[5-(2-Cycloheptyl-ethyl)-2-(3-methoxy-phenyl)-1H-imidazole-4-carbonyl]-amino}-benzoic Acid], at gastrin receptor, the Kb is 50.1 nM. Also, the Ki on CCKB receptor was 1510 nM.

Turning to `O=C(O)c1cccc(NC(=O)c2nc(-c3ccccc3F)[nH]c2CCC2CCCCCC2)c1` [Example 43, 3-{[5-(2-Cycloheptyl-ethyl)-2-(2-fluoro-phenyl)-1H-imidazole-4-carbonyl]-amino}-benzoic Acid], at gastrin receptor, the Kb was 63.1 nM. In addition, the Ki on CCKB receptor is 851 nM.

Consider `O=C(O)c1cc(NC(=O)c2[nH]c(-c3ccccc3)nc2CCC23CC4CC(CC(C4)C2)C3)cc(C(=O)O)c1` [Example 46, 5-{[5-(2-Adamantan-1-yl-ethyl)-2-phenyl-1H-imidazole-4-carbonyl]-amino}-isophthalic Acid], for which the Kb on gastrin receptor is 2510 nM. Besides, the Ki at CCKB receptor was 646 nM.

In the case of `O=C(O)c1cccc(NC(=O)c2[nH]c(-c3ccccc3)nc2CCC23CC4CC(CC(C4)C2)C3)c1` [Example 47, 3-{[5-(2-Adamantan-1-yl-ethyl)-2-phenyl-1H-imidazole-4-carbonyl]-amino}-benzoic Acid], the Kb at gastrin receptor is 234 nM. Besides, at CCKB receptor, the Ki was 251 nM.

With `O=C(O)c1cccc(NC(=O)c2nc(-c3ccccc3F)[nH]c2CCC23CC4CC(CC(C4)C2)C3)c1` [Example 50, 3-{[5-(2-Adamantan-1-yl-ethyl)-2-(2-fluoro-phenyl)-1H-imidazole-4-carbonyl]-amino}-benzoic Acid], the Kb at gastrin receptor was 26.3 nM. The Ki on CCKB receptor was 331 nM.

Turning to `O=C(O)c1cccc(NC(=O)c2nc(-c3ccc(F)cc3)[nH]c2CCC23CC4CC(CC(C4)C2)C3)c1` [Example 54, 3-{[5-(2-Adamantan-1-yl-ethyl)-2-(4-fluoro-phenyl)-1H-imidazole-4-carbonyl]-amino}-benzoic Acid], the Kb on gastrin receptor is 813 nM. Besides, on CCKB receptor, the Ki is 309 nM.

For the compound `O=C(O)c1cccc(NC(=O)c2nc(-c3cccc(F)c3)[nH]c2CCC23CC4CC(CC(C4)C2)C3)c1` [Example 55, 3-{[5-(2-Adamantan-1-yl-ethyl)-2-(3-fluoro-phenyl)-1H-imidazole-4-carbonyl]-amino}-benzoic Acid], the Kb on gastrin receptor is 229 nM. Moreover, the Ki at CCKB receptor was 646 nM.

Consider `O=C(O)c1cccc(NC(=O)c2nc(-c3ccccc3C(F)(F)F)[nH]c2CCC23CC4CC(CC(C4)C2)C3)c1` [Example 56, 3-{[5-(2-Adamantan-1-yl-ethyl)-2-(2-trifluoromethyl-phenyl)-1H-imidazole-4-carbonyl]-amino}-benzoic Acid], for which the Kb on gastrin receptor was 18.2 nM. Further, at CCKB receptor, the Ki was 240 nM.

In the case of `Cc1ccccc1-c1nc(C(=O)Nc2cccc(C(=O)O)c2)c(CCC23CC4CC(CC(C4)C2)C3)[nH]1` [Example 57, 3-{[5-(2-Adamantan-1-yl-ethyl)-2-o-tolyl-1H-imidazole-4-carbonyl]-amino}-benzoic Acid], on gastrin receptor, the Kb was 58.9 nM. In addition, on CCKB receptor, the Ki is 120 nM.

As for `COc1ccccc1-c1nc(C(=O)Nc2cccc(C(=O)O)c2)c(CCC23CC4CC(CC(C4)C2)C3)[nH]1` [Example 58, 3-{[5-(2-Adamantan-1-yl-ethyl)-2-(2-methoxy-phenyl)-1H-imidazole-4-carbonyl]-amino}-benzoic Acid], the Kb on gastrin receptor is 22.9 nM. In addition, the Ki at CCKB receptor was 794 nM.

Take `O=C(O)c1cccc(NC(=O)c2nc(-c3ccccc3Br)[nH]c2CCC23CC4CC(CC(C4)C2)C3)c1` [Example 59, 3-{[5-(2-Adamantan-1-yl-ethyl)-2-(2-bromo-phenyl)-1H-imidazole-4-carbonyl]-amino}-benzoic Acid]: on gastrin receptor, the Kb is 57.5 nM. Further, the Ki at CCKB receptor is 251 nM.

`O=C(O)c1cccc(NC(=O)c2nc(-c3ccc(F)cc3F)[nH]c2CCC23CC4CC(CC(C4)C2)C3)c1` [Example 60, 3-{[5-(2-Adamantan-1-yl-ethyl)-2-(2,4-difluoro-phenyl)-1H-imidazole-4-carbonyl]-amino}-benzoic Acid]: at gastrin receptor, the Kb was 7.76 nM. The Ki at CCKB receptor was 141 nM.

Take `O=C(O)c1cccc(NC(=O)c2nc(-c3c(F)cccc3F)[nH]c2CCC23CC4CC(CC(C4)C2)C3)c1` [Example 61, 3-{[5-(2-Adamantan-1-yl-ethyl)-2-(2,6-difluoro-phenyl)-1H-imidazole-4-carbonyl]-amino}-benzoic Acid]: on gastrin receptor, the Kb is 31.6 nM. Moreover, the Ki at CCKB receptor was 148 nM.

As for `O=C(O)c1cccc(NC(=O)c2nc(-c3cccc(O)c3)[nH]c2CCC23CC4CC(CC(C4)C2)C3)c1` [Example 62, 3-{[5-(2-Adamantan-1-yl-ethyl)-2-(3-hydroxy-phenyl)-1H-imidazole-4-carbonyl]-amino}-benzoic Acid], on gastrin receptor, the Kb was 1200 nM. The Ki on CCKB receptor is 389 nM.

As to `O=C(O)c1cccc(NC(=O)c2nc(-c3ccc(O)cc3)[nH]c2CCC23CC4CC(CC(C4)C2)C3)c1` [Example 63, 3-{[5-(2-Adamantan-1-yl-ethyl)-2(4-hydroxy-phenyl)-1H-imidazole-4-carbonyl]-amino}-benzoic Acid], the Kb at gastrin receptor was 1620 nM. For the same compound, the Ki on CCKB receptor was 1100 nM.

As for `Cc1cccc(C)c1-c1nc(C(=O)Nc2cccc(C(=O)O)c2)c(CCC23CC4CC(CC(C4)C2)C3)[nH]1` [Example 65, 3-{[5-(2-Adamantan-1-yl-ethyl)-2-(2,6-dimethyl-phenyl)-1H-imidazole-4-carbonyl]-amino}-benzoic Acid], the Kb on gastrin receptor is 100 nM. Further, on CCKB receptor, the Ki is 56.2 nM.

On to `Cc1ccc(C)c(-c2nc(C(=O)Nc3cccc(C(=O)O)c3)c(CCC34CC5CC(CC(C5)C3)C4)[nH]2)c1` [Example 66, 3-{[5-(2-Adamantan-1-yl-ethyl)-2-(2,5-dimethyl-phenyl)-1H-imidazole-4-carbonyl]-amino}-benzoic Acid], for which the Kb on gastrin receptor was 55 nM. The Ki at CCKB receptor is 200 nM.

As to `Cc1ccc(-c2nc(C(=O)Nc3cccc(C(=O)O)c3)c(CCC34CC5CC(CC(C5)C3)C4)[nH]2)c(C)c1` [Example 67, 3-{[5-(2-Adamantan-1-yl-ethyl)-2-(2,4-dimethyl-phenyl)-1H-imidazole-4-carbonyl]-amino}-benzoic Acid], on gastrin receptor, the Kb is 10 nM. The Ki at CCKB receptor is 83.2 nM.

Turning to `O=C(O)c1cccc(NC(=O)c2nc(-c3cccc(Cl)c3Cl)[nH]c2CCC23CC4CC(CC(C4)C2)C3)c1` [Example 69, 3-{[5-(2-Adamantan-1-yl-ethyl)-2-(2,3-dichloro-phenyl)-1H-imidazole-4-carbonyl]-amino}-benzoic Acid], the Kb at gastrin receptor was 89.1 nM. Also, at CCKB receptor, the Ki is 398 nM.

Consider `CN(C)c1cccc(-c2nc(C(=O)Nc3cccc(C(=O)O)c3)c(CCC34CC5CC(CC(C5)C3)C4)[nH]2)c1` [Example 71, 3-{[5-(2-Adamantan-1-yl-ethyl)-2-(3-dimethylamino-phenyl)-1H-imidazole-4-carbonyl]-amino}-benzoic Acid], for which, at gastrin receptor, the Kb was 794 nM. Also, the Ki on CCKB receptor is 186 nM.

On to `CN(C)c1ccc(-c2nc(C(=O)Nc3cccc(C(=O)O)c3)c(CCC34CC5CC(CC(C5)C3)C4)[nH]2)cc1` [Example 72, 3-{[5-(2-Adamantan-1-yl-ethyl)-2-(4-dimethylamino-phenyl)-1H-imidazole-4-carbonyl]-amino}-benzoic Acid], for which, at gastrin receptor, the Kb is 1230 nM. Moreover, the Ki at CCKB receptor was 295 nM.
